Patent US20090170878A1, “MACROCYCLIC COMPOUNDS USEFUL AS BACE INHIBITORS” (priority 2006, published 2009)
pIC50: −log10 of the molar value.

Target: T1, Human BACE (Homo sapiens, UniProt P56817)
T1 construct: Recombinant BACE (extracellular domain, expressed in baculovirus and purified using standard methods); made in house; host or cells: baculovirus expression system (insect cells)
Test: Test 1: Inhibition of Human BACE
Format: biochemical
Conditions: recombinant BACE extracellular domain, fluorescence-quenched APP-derived peptide substrate, pH 4.5
Description: Test 1: Inhibition of Human BACE
Recombinant BACE (extracellular domain, expressed in baculovirus and purified using standard methods) at 0.1 to 10 nM concentrations is incubated with the test compound at various concentrations for 1 hour at room temperature in 10 to 100 mM acetate buffer, pH 4.5, containing 0.1% CHAPS. Synthetic fluorescence-quenched peptide substrate, derived from the sequence of APP and containing a suitable fluorophore-quencher pair, is added to a final concentration of 1 to 5 μM, and the increase in fluorescence is recorded at a suitable excitation/emission wavelength in a microplate spectro-fluorimeter for 5 to 30 minutes in 1-minute intervals. IC50 values are calculated from percentage of inhibition of BACE-activity as a function of the test compound concentration.

T1 sequence (P56817 46-457 limits assumed): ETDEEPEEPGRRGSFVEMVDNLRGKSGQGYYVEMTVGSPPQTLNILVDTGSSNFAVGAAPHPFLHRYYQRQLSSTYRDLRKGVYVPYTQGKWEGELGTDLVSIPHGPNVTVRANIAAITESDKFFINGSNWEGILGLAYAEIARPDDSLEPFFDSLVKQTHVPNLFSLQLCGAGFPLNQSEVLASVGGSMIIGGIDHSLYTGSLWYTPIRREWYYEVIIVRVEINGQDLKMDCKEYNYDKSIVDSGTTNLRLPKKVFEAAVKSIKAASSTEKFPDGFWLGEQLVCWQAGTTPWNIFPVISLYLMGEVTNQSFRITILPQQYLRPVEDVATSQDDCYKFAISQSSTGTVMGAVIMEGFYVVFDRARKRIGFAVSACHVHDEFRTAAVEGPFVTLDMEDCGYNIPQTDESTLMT

pIC50: 7.52
Compound: CC(C)c1cccc(C2(NC[C@@H](O)[C@@H]3C[C@H](C)CCCCCCCCC(=O)N(C)[C@@H](C)C(=O)N3)CC2)c1 [Example 1, (3S,14R,16S)-16-{(R)-1-Hydroxy-2-[1-(3-isopropyl-phenyl)-cyclopropylamino]-ethyl}-3,4,14-trimethyl-1,4-diaza-cyclohexadecane-2,5-dione]
